The record followed here is ChEMBL document CHEMBL1147596, “Subtype selective NMDA receptor antagonists: evaluation of some novel alkynyl analogues” (Bioorg Med Chem Lett, 2004).

Experiment [1] has as its system Rattus norvegicus. Kind of experiment: Minimum effective dose required to measure anti-parkinson's activity (In vivo) upon p.o. […] in rat. The format is functional. The following applies: po, read-out: MED.
Experiment [2] concerns Rattus norvegicus. Kind of experiment: In vivo minimum effective dose inhibition of neuropathic pain (formalin test) upon p.o. administration; Not active. The format is functional, organism-based.
Experiment [3] deals with Glutamate NMDA receptor; Grin1/Grin2b (Rattus norvegicus, UniProt P35439+Q00960). Nature of the experiment: Binding affinity against NR1A/2B receptor in rat brains by [3H]ifenprodil displacement. The format is tissue-based, Brain.
Experiment [4] concerns Rattus norvegicus. Kind of experiment: In vivo minimum effective dose for anti-Parkinsonian activity in 6-OHDA rat model upon p.o. administration; Not active. The class given is functional.
The nature of experiment [5]: Binding affinity against NR1A/2B receptor using [3H]-ifenprodil radioligand in native rat brains; NA means not active.
The test system of experiment [6] is Rattus norvegicus. Nature of the experiment: Minimum effective dose required to measure neuropathic pain (In vivo) by formalin test upon p.o. […] in rat. The format is functional. The following applies: po, read-out: MED.

By IC50 is commonly meant the concentration that inhibits the measured activity by half.

Active and inactive are the calls of the source. The rule behind the calls is not given here.

Glutamate NMDA receptor; Grin1/Grin2b, sequence (Q00960 whole entry, other chains not shown): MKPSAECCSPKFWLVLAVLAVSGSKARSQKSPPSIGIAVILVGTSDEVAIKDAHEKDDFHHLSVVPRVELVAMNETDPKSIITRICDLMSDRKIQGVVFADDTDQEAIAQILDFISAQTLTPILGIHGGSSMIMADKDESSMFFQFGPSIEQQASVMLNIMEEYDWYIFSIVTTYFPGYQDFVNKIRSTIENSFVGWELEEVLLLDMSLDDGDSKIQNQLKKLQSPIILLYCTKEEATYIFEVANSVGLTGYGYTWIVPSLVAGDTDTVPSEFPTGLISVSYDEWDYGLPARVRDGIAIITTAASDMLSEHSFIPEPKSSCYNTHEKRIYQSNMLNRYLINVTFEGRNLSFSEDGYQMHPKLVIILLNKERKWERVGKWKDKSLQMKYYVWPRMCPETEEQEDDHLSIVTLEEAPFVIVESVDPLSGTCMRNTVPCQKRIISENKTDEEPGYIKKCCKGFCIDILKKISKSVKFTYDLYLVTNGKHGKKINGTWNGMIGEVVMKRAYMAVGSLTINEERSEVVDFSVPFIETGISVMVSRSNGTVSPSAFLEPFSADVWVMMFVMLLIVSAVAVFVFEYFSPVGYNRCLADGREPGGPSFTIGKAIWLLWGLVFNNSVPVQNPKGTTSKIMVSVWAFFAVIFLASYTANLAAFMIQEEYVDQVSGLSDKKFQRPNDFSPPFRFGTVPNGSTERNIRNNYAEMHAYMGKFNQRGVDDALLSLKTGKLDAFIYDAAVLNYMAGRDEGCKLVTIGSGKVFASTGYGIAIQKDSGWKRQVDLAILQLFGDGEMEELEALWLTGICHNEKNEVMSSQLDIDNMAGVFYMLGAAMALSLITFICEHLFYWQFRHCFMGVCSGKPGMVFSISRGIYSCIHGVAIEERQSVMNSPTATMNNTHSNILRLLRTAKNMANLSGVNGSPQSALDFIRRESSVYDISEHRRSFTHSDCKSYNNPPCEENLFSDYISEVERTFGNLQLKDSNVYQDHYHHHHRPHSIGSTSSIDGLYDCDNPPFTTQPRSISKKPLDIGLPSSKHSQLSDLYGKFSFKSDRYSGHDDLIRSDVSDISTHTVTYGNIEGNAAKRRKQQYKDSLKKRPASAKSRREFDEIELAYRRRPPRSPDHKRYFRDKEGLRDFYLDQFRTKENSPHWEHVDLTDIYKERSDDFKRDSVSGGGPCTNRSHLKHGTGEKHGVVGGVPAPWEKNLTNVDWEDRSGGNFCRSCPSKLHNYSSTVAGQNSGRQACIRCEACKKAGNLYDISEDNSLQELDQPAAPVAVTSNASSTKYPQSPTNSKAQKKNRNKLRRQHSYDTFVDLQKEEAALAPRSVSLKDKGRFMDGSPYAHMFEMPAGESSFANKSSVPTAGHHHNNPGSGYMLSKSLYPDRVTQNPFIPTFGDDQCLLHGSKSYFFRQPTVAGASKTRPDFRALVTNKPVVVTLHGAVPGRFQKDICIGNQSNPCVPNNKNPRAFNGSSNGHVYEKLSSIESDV

`Cc1cc(C#CCN2CCC(Cc3ccc(F)cc3)CC2)cc2[nH]c(O)nc12`: the minimal effective dose in the experiment with Rattus norvegicus [1] amounted to 30 mg/kg. Also, the MED result in the experiment on Rattus norvegicus [2] is “inactive”.
Take `Cc1cc2[nH]c(=O)[nH]c2cc1C#CCN1CCC(Cc2ccc(F)cc2)CC1`: the IC50 in experiment [3] was 4 nM.
On to `Oc1nc2cc(C#CCN3CCC(O)(Cc4ccc(F)cc4)CC3)ccc2[nH]1`, for which the IC50 in experiment [3] is 21 nM. Moreover, the MED entry in the experiment with Rattus norvegicus [4] and in the experiment with Rattus norvegicus [2] was “inactive” each time.
For `Oc1nc2cc(C#CCN3CCC(Cc4ccc(F)cc4)CC3)c[nH]c-2n1`, the MED entry in the experiment with Rattus norvegicus [4] and in the experiment on Rattus norvegicus [2] was “inactive” in each case.
`O=c1[nH]c2cc(C#CCN3CCC(Cc4ccc(F)cc4)CC3)cnc2[nH]1`: in experiment [3], the half-inhibitory concentration (IC50) came to 2 nM.
For `Oc1nc2c(C#CCN3CCC(Cc4ccc(F)cc4)CC3)cccc2[nH]1`, the MED entry in the experiment with Rattus norvegicus [4] and in the experiment with Rattus norvegicus [2] was “inactive” each time.
For `O=c1[nH]c2ccc(C#CCN3CCC(=Cc4ccc(F)cc4)CC3)cc2[nH]1`, the IC50 in experiment [3] is 142 nM.
Same read-out and setting: as for `Cc1cc(C#CCN2CCC(Cc3ccc(F)cc3)CC2)cc2[nH]c(=O)[nH]c12`, the figure is 20 nM.
As to `COc1cc2[nH]c(=O)[nH]c2cc1C#CCN1CCC(Cc2ccc(F)cc2)CC1`, the IC50 in experiment [3] came out at 9 nM.
`CC1CC(Cc2ccc(F)cc2)CC(C)N1CC#Cc1ccc2[nH]c(=O)[nH]c2c1` (stereo not drawn) registered an IC50 in experiment [3] of 157 nM.
`CC(C#Cc1ccc2[nH]c(O)nc2c1)N1CCC(Cc2ccc(F)cc2)CC1` (stereo not drawn): the MED result in the experiment with Rattus norvegicus [4] and with Rattus norvegicus [2] was “inactive” throughout.
With `CC(C)(C#Cc1ccc2[nH]c(=O)[nH]c2c1)N1CCC(Cc2ccc(F)cc2)CC1`, the IC50 in experiment [3] is greater than 1000 nM.
On to `CC1CC(Cc2ccc(F)cc2)CC(C)N1CC#Cc1ccc2[nH]c(O)nc2c1` (stereo not drawn), for which the MED result with Rattus norvegicus [4] and in the experiment on Rattus norvegicus [2] was “inactive” throughout.
For the molecule `Oc1nc2c(C(F)(F)F)cc(C#CCN3CCC(Cc4ccc(F)cc4)CC3)cc2[nH]1`, the IC50 entry in experiment [5] is on record as “Not Active”. In addition, the MED result in the experiment with Rattus norvegicus [4] and with Rattus norvegicus [2] was “inactive” each time.
For the molecule `CC1CC(Cc2ccc(F)cc2)CCN1CC#Cc1ccc2[nH]c(O)nc2c1` (stereo not drawn), the MED entry in the experiment with Rattus norvegicus [4] and with Rattus norvegicus [2] was “inactive” in each case.
`Cc1c(C#CCN2CCC(Cc3ccc(F)cc3)CC2)cc2nc(O)[nH]c2c1C`: the MED entry in the experiment with Rattus norvegicus [4] and with Rattus norvegicus [2] was “inactive” in each case.
As to `Oc1nc2ccc(C#CCN3CCC(O)(Cc4ccc(F)cc4)CC3)cc2o1`, the MED result in the experiment with Rattus norvegicus [4] was “inactive”. Moreover, the minimal effective dose in the experiment on Rattus norvegicus [6] came to 30 mg/kg.
In the case of `Fc1ccc(CC2CCN(CC#Cc3ccc4[nH]c(=S)[nH]c4c3)CC2)cc1`, the IC50 in experiment [3] is 19 nM.
Still for that read-out and setting: the figure for `CC(C#Cc1ccc2[nH]c(=O)[nH]c2c1)N1CCC(Cc2ccc(F)cc2)CC1` (stereo not drawn) is 100 nM.
Take `CC1CC(Cc2ccc(F)cc2)CCN1CC#Cc1ccc2[nH]c(=O)[nH]c2c1` (stereo not drawn): the IC50 in experiment [3] was 104 nM.
On to `Oc1nc2ccc(C#CCN3CCC(Cc4ccc(F)cc4)CC3)cc2o1`, for which the MED result in the experiment with Rattus norvegicus [4] was “inactive”. Moreover, in the experiment with Rattus norvegicus [6], the minimal effective dose is 30 mg/kg.
As to `CC(C)(C#Cc1ccc2[nH]c(O)nc2c1)N1CCC(Cc2ccc(F)cc2)CC1`, the MED entry in the experiment on Rattus norvegicus [4] and in the experiment with Rattus norvegicus [2] was “inactive” throughout.
`Cc1cc2[nH]c(O)nc2cc1C#CCN1CCC(Cc2ccc(F)cc2)CC1`: the MED result in the experiment with Rattus norvegicus [4] and with Rattus norvegicus [2] was “inactive” throughout.
As for `Oc1nc2cc(C#CCN3CCC(Cc4cccc(F)c4)CC3)ccc2[nH]1`, in experiment [3], the IC50 was found to be 14 nM. The MED entry in the experiment with Rattus norvegicus [4] and in the experiment on Rattus norvegicus [2] was “inactive” in each case.
Regarding `O=C1Cc2cc(C#CCN3CCC(Cc4ccc(F)cc4)CC3)ccc2N1`, in experiment [3], the IC50 stood at 56 nM. Moreover, the MED result with Rattus norvegicus [4] and in the experiment on Rattus norvegicus [2] was “inactive” throughout.
For `COc1cc2[nH]c(O)nc2cc1C#CCN1CCC(Cc2ccc(F)cc2)CC1`, the MED result with Rattus norvegicus [4] and with Rattus norvegicus [2] was “inactive” in each case.
Molecule `O=c1[nH]c2cccc(C#CCN3CCC(Cc4ccc(F)cc4)CC3)c2[nH]1` yielded an IC50 in experiment [3] of 284 nM.
As to `Oc1nc2cc(C#CCN3CCC(=Cc4ccc(F)cc4)CC3)ccc2[nH]1`, the MED entry with Rattus norvegicus [4] and in the experiment on Rattus norvegicus [2] was “inactive” each time.
Take `Oc1nc2cc(C#CCN3CCC(Cc4ccc(F)cc4)CC3)ccc2[nH]1`: the minimal effective dose in the experiment on Rattus norvegicus [4] (po, read-out: MED) was 10 mg/kg; in the experiment with Rattus norvegicus [6], 10 mg/kg.
For the molecule `Oc1nc2cc(C#CCN3CCC(CCc4ccc(F)cc4)CC3)ccc2[nH]1`, the MED result with Rattus norvegicus [4] and in the experiment on Rattus norvegicus [2] was “inactive” each time.
As to `Oc1nc2ccc(C#CCN3CCC(O)(Cc4ccc(F)cc4)CC3)cc2s1`, in experiment [3], the IC50 turned out to be 24 nM. In addition, the MED entry with Rattus norvegicus [4] and in the experiment on Rattus norvegicus [2] was “inactive” in each case.
`Fc1ccc(CC2CCN(CC#Cc3ccc4[nH]c(S)nc4c3)CC2)cc1`: the MED result in the experiment on Rattus norvegicus [4] and with Rattus norvegicus [2] was “inactive” throughout.
